In patent US20260055083A1, “APOL1 INHIBITORS AND METHODS OF USE” (Maze Therapeutics, Inc., priority 2022, published 2026):

Experiments:
APOL1 G2 [1] = molecular target: T1, APOL1 G2 (Homo sapiens, UniProt O14791, DEL388-389); experiment: APOL1 G2 FLIPR calcium influx assay (HEK T-REx/GCaMP6f/APOL1 G2 K6.3 cells); type: cell-based; details: HEK293 clone expressing GCaMP6f, doxycycline-induced APOL1 G2; prevention of calcium influx; geometric mean of at least 2 assay runs
T1 construct: expressed in transfected cells; host or cells: HEK293/T-REx APOL1 G2 clone #2, doxycycline-inducible
T1 sequence (O14791 with tags, fused parts or gaps DEL388-389): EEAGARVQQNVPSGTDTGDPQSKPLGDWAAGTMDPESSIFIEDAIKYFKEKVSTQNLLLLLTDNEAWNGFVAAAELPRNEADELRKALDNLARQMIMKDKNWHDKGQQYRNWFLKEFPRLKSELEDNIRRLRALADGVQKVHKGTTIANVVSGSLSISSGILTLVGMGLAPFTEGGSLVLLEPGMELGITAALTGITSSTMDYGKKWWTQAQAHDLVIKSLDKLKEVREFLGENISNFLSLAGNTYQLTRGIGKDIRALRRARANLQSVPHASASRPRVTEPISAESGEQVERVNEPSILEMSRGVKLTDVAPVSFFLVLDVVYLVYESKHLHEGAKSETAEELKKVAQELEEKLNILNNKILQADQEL
Procedure: A HEK293 clonal cell line was generated to stably express GCaMP6f, a genetically encoded calcium indicator, and inducibly express APOL1 G2 (HEK T-REx/GCaMP6f/APOL1 G2 K6.3). Cells were maintained in the following standard complete medium: DMEM with 4.5 g/L glucose and sodium pyruvate (BioWhittaker, Lonza, BE12-614F), supplemented with 10% FBS Performance Plus (Gibco, 16000044), 1% penicillin-streptomycin (BioWhittaker, DE17-602E), 2 mM ultraglutamine-1 (BioWhittaker cat. BE 17-605/U1), 50 μg/mL Zeocin (InvivoGen, ant-zn), 2.5 μg/mL Blasticidin (InvivoGen, ant-bl-5), and 25 μg/mL Hygromycin (InvivoGen, ant-hg). Standard propagation conditions consisted of plating 9×10^6, 4×10^6, 2×10^6 cells in a T225 flasks to be processed after 2, 3, or 4 days, respectively.
A source plate was generated containing 20 serially diluted compounds in DMSO (duplicate 8-point dose response). Next, 0.8 μL of compounds were transferred from the source plate to a destination plate prefilled with 79.2 μL of Ca^2+ free Tyrode's buffer (130 mM NaCl, 5 mM KCl, 1 mM MgCl2, 5 mM NaHCO3, 20 mM HEPES at pH 7.4). The destination plate was placed on a plate shaker (5 seconds at 2000 rpm) to mix. […] All transfer and mixing steps were conducted with an CyBi®-Well dispenser.
Cells were split by gently washing with DPBS (Euroclone, ECB4004L), followed by a 5-minute incubation (humidified, 37° C. with 5% CO2) with trypsin-EDTA solution (Euroclone, ECB3052D). Detached cells were diluted with standard complete medium without selective agents, counted, and plated in a 384 MTP microplate (GR4332CPL, Twin Helix) (10,000 cells/well in 25 μl/well) using a MATRIX WellMate dispenser. Plates were placed into a humidified incubator (37° C. with 5% CO2) overnight. The following day, 20 μL of doxycycline (Sigma, D9891) at 20 ng/mL in standard complete medium was added to cells with a CyBi®Drop dispenser to induce APOL1 G2 expression. After a 6-hour incubation (humidified, 37° C. with 5% CO2), cells were washed 3 times with Ca^2+ free Tyrode's Buffer (130 mM NaCl, 5 mM KCl, 1 mM MgCl2, 5 mM NaHCO3, 20 mM HEPES at pH 7.4) using a BIOTEK Microplate washer, such that 10 μL of buffer remained in each well after the final wash. Assay plates were then stored at room temperature for 10 minutes. Next, 10 μL of diluted compounds were transferred to the assay plate from the 2× compound plate using a CyBi®-Well dispenser. Compound incubation was then carried out at room temperature for 10 minutes. The assay plate was transferred to the […] and 20 μL of 10 mM Ca^2+ (final concentration=5 mM) Tyrode's buffer was injected.
Table B1 below summarizes the data from this experiment. Unless otherwise specified, AC50 and values are reported as the geometric mean of at least 2 assay runs on separate days. Each run represents the average of a technical replicate, where each compound was assayed twice in the same plate. A superscript t symbol indicates a value from the average of a technical replicate from a single assay run, where each compound was assayed twice in the same plate.
The AC50 values in Table B1 below reflect the compound's ability to prevent calcium influx by inhibiting APOL1. […] Compounds in Table B1 are referred to by the corresponding Compound Number in Table 1, which is also referred to in the synthetic examples. When one or more of the numbered compounds are identified by stereochemistry (for example, (R)- or (S)-), the specific stereoisomer for which data is provided in Table B1 may be identified by the elution order of such compound as described in the synthetic examples. To illustrate, Compound 2 is the first-eluting enantiomer of step 4 of Example 1 and Compound 3 is the second-eluting enantiomer of step 4 of Example 1. Further, by way of illustration, Compound 27 is the first-eluting enantiomeric mixture in step 4 of Example 7 and Compound 28 is the second-eluting enantiomeric mixture in step 4 of Example 7. […]

APOL1 G2 [2] = molecular target: T1, APOL1 G2; experiment: APOL1 G2 HEK293 rescue of cell death caused by overexpression of APOL1 (CellTiter-Glo); type: cell-based; details: HEK293/T-REx APOL1 G2 clone #2, doxycycline induction, 17 hours, CellTiter-Glo luminescence; reversal of cell death; geometric mean of at least 2 assay runs
Procedure: A HEK293 clonal cell line overexpressing APOL1 G2 (HEK293/T-REx APOL1 G2/clone #2) was maintained in 1×DMEM-GlutaMax (Gibco, 10569-010) media with 10% tetracycline-free FBS (Takara Bio USA, 631101), 5 μg/mL Blasticidin (Gibco, A1113903), and 100 μg/mL Zeocin (Invitrogen, R25001) in T75 flasks. In preparation for the assay, this media was aspirated and 2 mL of prewarmed TrypLE Express (Gibco, 12605-010) was added to a flask to detach cells. The flask was then incubated (humidified, 37° C. with 5% CO2) for 3-5 minutes. Afterwards, 8 mL of prewarmed cell assay media (1×DMEM-GlutaMax media with 10% tetracycline-free FBS) was added to the trypsinized cells. The suspension was gently mixed, and cells were counted using a Countess Cell Counting Chamber (Invitrogen). The suspension was diluted using cell assay media to generate a working stock solution (166,667 cells/mL). Using a MultiDrop Combi (Thermo Electron Corp), 30 μL (final cell density=5,000 cells/well) of the working stock solution was dispensed into each well of white 384-well assay ready plates (Nunc™, 164610) containing 6 ng/mL doxycycline, to induce APOL1 expression, and compound. All compounds were plated in a duplicate 8-point dilution series that consisted of 3-fold stepwise dilutions (0.5% DMSO final). Assay plates were incubated (humidified, 37° C. with 5% CO2) for 17 hours. After the incubation, the plates were equilibrated at room temperature for 1 hour. Next, 15 μl of CellTiter-Glo® reagent (Promega, G7570) was added to each well using a MultiDrop Combi. Plates were placed on an orbital shaker (500 rpm) for 5 minutes to induce cell lysis and then incubated at room temperature for 10 minutes. Luminescence was measured on an Envision plate reader. Collaborative Drug Discovery software was utilized for graphing data. Plots were generated using a four parameter logistic curve fit.
Table B2 below provides the results from this experiment. Unless otherwise specified, EC50 values are reported as the geometric mean of at least 2 assay runs on separate days. Each run represents the average of a technical replicate, where each compound was assayed twice in the same plate. A superscript t symbol indicates a value from the average of a technical replicate from a single assay run, where each compound was assayed twice in the same plate. Compounds in Table B2 are referred to by the corresponding Compound Number in Table 1, which is also referred to in the synthetic examples. When one or more of the numbered compounds are identified by stereochemistry (for example, (R)- or (S)-), the specific stereoisomer for which data is provided in Table B2 may be identified by the elution order of such compound as described in the synthetic examples. To illustrate, Compound 2 is the first-eluting enantiomer of step 4 of Example 1 and Compound 3 is the second-eluting enantiomer of step 4 of Example 1. Further, by way of illustration, Compound 27 is the first-eluting enantiomeric mixture in step 4 of Example 7 and Compound 28 is the second-eluting enantiomeric mixture in step 4 of Example 7. Then, Compound 27 is separated into Compound 29 (the first-eluting enantiomer) and Compound 30 (the second-eluting enantiomer) in Example 8, and Compound 28 is separated into Compound 31 (the first-eluting enantiomer) and Compound 32 (the second-eluting enantiomer) in Example 8. Absolute stereochemistry of such compounds may be identified by methods known in the art.
Rescue EC50 values reported in Table B2 below represent the half-maximal effective concentration for reversal of cell death caused by overexpression of APOL1.

Row | SMILES | AC50 (APOL1 G2 [1]) [µM] | EC50 (APOL1 G2 [2]) [µM]
1 | C[C@@H]1C[C@H](COc2ccc(S(=O)(=O)CCS(C)(=O)=O)cc2)CN1C1CCc2ccc(C#N)cc2C1 (single isomer, unassigned) [Compound 31] | 0.773 | 0.234
2 | C[C@@H]1C[C@H](COc2ccc(S(=O)(=O)CCS(C)(=O)=O)cc2)CN1C1CCc2ccc(C#N)cc2C1 (single isomer, unassigned) [Compound 32] | 0.769 | 0.353
3 | C[C@@H]1C[C@H](COc2ccc(S(=O)(=O)CCS(C)(=O)=O)cc2)CN1C1CCc2ccc(C#N)cc2C1 (single isomer, unassigned) [Compound 33, 7S or 7R)-7-[(2R,4S)-4-{[4-(2-methanesulfonylethanesulfonyl)phenoxy]methyl}-2-methylpyrrolidin-1-yl]-5,6,7,8-tetrahydronaphthalene-2-carbonitrile] | 0.662 | 0.133
4 | C[C@@H]1C[C@H](COc2ccc(S(=O)(=O)CCCS(C)(=O)=O)cc2)CN1C1CCc2ccc(C#N)cc2C1 (single isomer, unassigned) [Compound 34, (7R or 7S)-7-[(2R,4S)-4-{[4-(3-methanesulfonylpropanesulfonyl)phenoxy]methyl}-2-methylpyrrolidin-1-yl]-5,6,7,8-tetrahydronaphthalene-2-carbonitrile] | 0.951 | 0.0869
5 | C[C@@H]1C[C@H](COc2ccc(S(=O)(=O)CCCS(C)(=O)=O)cc2)CN1C1CCc2ccc(C#N)cc2C1 (single isomer, unassigned) [Compound 35] | 0.948 | 0.256
6 | C[C@@H]1C[C@H](COc2ccc(S(=O)(=O)CCCS(C)(=O)=O)cc2)CN1C1CCc2ccc(C#N)cc2C1 (single isomer, unassigned) [Compound 36, (7S or 7R)-7-[(2R,4S)-4-{[4-(3-methanesulfonylpropanesulfonyl)phenoxy]methyl}-2-methylpyrrolidin-1-yl]-5,6,7,8-tetrahydronaphthalene-2-carbonitrile] | 0.714 | 0.0363
7 | CN=S(C)(=O)c1ccc(OC[C@H]2C[C@@H](C)N(C3CCc4ccc(C#N)cc4C3)C2)cc1 (single isomer, unassigned) [Compound 38, (7S or 7R)-7-[(2R,4S)-2-methyl-4-({4-[methyl(methylimino)oxo-λ^6-sulfanyl]phenoxy}methyl)pyrrolidin-1-yl]-5,6,7,8-tetrahydronaphthalene-2-carbonitrile] | 0.59 | 0.065
8 | C[C@@H]1C[C@H](COc2ccc(S(=O)(=O)CCCS(C)(=O)=O)cc2)CN1C1CCc2c(C#N)cccc2C1 (single isomer, unassigned) [Compound 41, (6S or 6R)-6-[(2R,4S)-4-{[4-(3-methanesulfonylpropanesulfonyl)phenoxy]methyl}-2-methylpyrrolidin-1-yl]-5,6,7,8-tetrahydronaphthalene-1-carbonitrile] | 1.18 | 0.0628
9 | C[C@@H]1C[C@H](COc2ccc(S(=O)(=O)CCCS(C)(=O)=O)cc2)CN1C1CCc2c(C#N)cccc2C1 (single isomer, unassigned) [Compound 42, (6R or 6S)-6-[(2R,4S)-4-{[4-(3-methanesulfonylpropanesulfonyl)phenoxy]methyl}-2-methylpyrrolidin-1-yl]-5,6,7,8-tetrahydronaphthalene-1-carbonitrile] | 1.03 | 0.227
10 | C[C@@H]1C[C@H](COc2ccc(S(=O)(=O)CCCS(C)(=O)=O)cc2)CN1C1CCc2c(C#N)cc(Cl)cc2C1 (single isomer, unassigned) [Compound 44, (6R or 6S)-3-chloro-6-[(2R,4S)-4-{[4-(3-methanesulfonylpropanesulfonyl)phenoxy]methyl}-2-methylpyrrolidin-1-yl]-5,6,7,8-tetrahydronaphthalene-1-carbonitrile] | 1.38 | 0.312
